Measured values as given in publication PMC9151520 (Archives of Toxicology, 2022).
Where two headings read alike, the source gives them in different places.

Legend:
[1] = system: p53 signaling (p53RE-bla HCT-116 cells); test: cells; settings: Homo sapiens
[2] = system: p53 signaling (p53RE-bla HCT-116 cells)
[3] = system: p53 signaling (p53RE-bla HCT-116 cells); remark: listed apart in the source
[4] = system: p53 signaling (p53RE-bla HCT-116 cells); test: cells; assay type: cell-based
[5] = HCT-116, read-out: EC50, p53 activation, primary screening
[6] = Homo sapiens, HCT-116, read-out: EC50, p53 activation, primary screening
[7] = Homo sapiens, HCT-116, read-out: Efficacy, p53 activation, cherry pick confirmation
[8] = HCT-116, read-out: p53 activation EC50, primary screening
[9] = HCT-116, read-out: p53 activation efficacy, primary screening

| SMILES | EC50 [1, 8] | Emax [1, 9] | Viability EC50, cherry pick confirmation (p53RE-bla HCT-116 cells) | Viability EC50, primary screening (p53RE-bla HCT-116 cells) | Viability efficacy, cherry pick confirmation (p53RE-bla HCT-116 cells) | Viability efficacy, primary screening (p53RE-bla HCT-116 cells) | p53 activation EC50, cherry pick confirmation [2] | p53 activation efficacy, cherry pick confirmation [2] | p53 activation EC50, cherry pick confirmation [3] | p53 activation EC50, primary screening [3] | p53 activation efficacy, cherry pick confirmation [3] | p53 activation efficacy, primary screening [3] | p53 activation EC50, cherry pick confirmation [4] | p53 activation EC50, primary screening [4] | p53 activation efficacy, cherry pick confirmation [4] | p53 activation efficacy, primary screening [4] | further results |
| --- | --- | --- | --- | --- | --- | --- | --- | --- | --- | --- | --- | --- | --- | --- | --- | --- | --- |
| O=C(O)CCCc1ccc(N(CCCl)CCCl)cc1 [Chlorambucil] | – | – | – | – | – | – | – | – | – | – | – | – | – | – | – | – | EC50 ([1]; HCT-116, read-out: p53 activation EC50): 22.6 µM; Emax ([1]; HCT-116, read-out: p53 activation efficacy): 25.2%; Viability EC50 (p53RE-bla HCT-116 cells): inactive; Viability efficacy (p53RE-bla HCT-116 cells): inactive; p53 activation EC50 [2]: inactive; p53 activation EC50 [3]: inactive; p53 activation efficacy [3]: inactive; p53 activation efficacy [4]: 39.7467; EC50 ([4]; Homo sapiens, HCT-116, read-out: p53 activation EC50): 25.7 µM; Emax ([4]; Homo sapiens, HCT-116, read-out: p53 activation efficacy): 31.3%; EC50 ([4]; read-out: p53 activation EC50): 37.3 µM |
| O=c1[nH]cc(F)c(=O)[nH]1 [5-Fluorouracil] | – | – | – | – | – | – | – | – | – | – | – | – | – | – | – | – | EC50 [1, 5]: 3.79 µM; EC50, viability, cherry pick confirmation (p53RE-bla HCT-116 cells): inactive; EC50, viability, primary screening (p53RE-bla HCT-116 cells): inactive; Efficacy, viability, cherry pick confirmation (p53RE-bla HCT-116 cells): inactive; Efficacy, viability, primary screening (p53RE-bla HCT-116 cells): inactive; EC50, p53 activation, cherry pick confirmation [2]: inactive; Efficacy, p53 activation, cherry pick confirmation [2]: inactive; EC50, p53 activation, cherry pick confirmation [3]: inactive; EC50, p53 activation, primary screening [3]: inactive; Efficacy, p53 activation, cherry pick confirmation [3]: inactive; Efficacy, p53 activation, primary screening [3]: inactive; EC50 ([4]; Homo sapiens, HCT-116, read-out: EC50, p53 activation, cherry pick confirmation): 21.2 µM; EC50 [4, 6]: 5.93 µM; Emax [4, 7]: 98.3% |
| COc1cc([C@@H]2c3cc4c(cc3[C@@H](O[C@@H]3O[C@@H]5CO[C@@H](C)O[C@H]5[C@H](O)[C@H]3O)[C@H]3COC(=O)[C@H]23)OCO4)cc(OC)c1O [etoposide, reference compound] | – | – | – | – | – | – | – | – | – | – | – | – | – | – | – | – | EC50 [1, 5]: 0.888 µM; Emax ([1]; HCT-116, read-out: Efficacy, p53 activation, cherry pick confirmation): 32.9%; Emax ([1]; HCT-116, read-out: Efficacy, p53 activation, primary screening): 22.1%; EC50, viability, cherry pick confirmation (p53RE-bla HCT-116 cells): inactive; EC50, viability, primary screening (p53RE-bla HCT-116 cells): inactive; Efficacy, viability, cherry pick confirmation (p53RE-bla HCT-116 cells): inactive; Efficacy, viability, primary screening (p53RE-bla HCT-116 cells): inactive; p53 induction in the presence of microsomes compared with absence of microsomes [2]: inactivity or lower activity; EC50, p53 activation, cherry pick confirmation [3]: inactive; EC50, p53 activation, primary screening [3]: inactive; Efficacy, p53 activation, cherry pick confirmation [3]: inactive; Efficacy, p53 activation, primary screening [3]: inactive; EC50 [4, 6]: 1.33 µM; Emax [4, 7]: 72.1%; Emax ([4]; Homo sapiens, HCT-116, read-out: Efficacy, p53 activation, primary screening): 62.9% |
| CCCCOCCOP(=O)(OCCOCCCC)OCCOCCCC [Tris(2-butoxyethyl) phosphate] | 35.1 µM | 48.7% | inactive | inactive | inactive | inactive | inactive | inactive | inactive | inactive | inactive | inactive | inactive | inactive | inactive | inactive | – |
| c1ccc2c(c1)c1cccc3ccc4cccc2c4c31 [Benzo(e)pyrene] | 20.1 µM | 48.3% | inactive | inactive | inactive | inactive | inactive | inactive | inactive | inactive | inactive | inactive | inactive | – | inactive | – | EC50 ([4]; Homo sapiens, HCT-116, read-out: p53 activation EC50, primary screening): 36.3 µM; Emax ([4]; Homo sapiens, HCT-116, read-out: p53 activation efficacy, primary screening): 104% |
| C=CC1(C)OC(=O)N(c2cc(Cl)cc(Cl)c2)C1=O (centres unmarked) [Vinclozolin] | 16.9 µM | 39.4% | inactive | inactive | inactive | inactive | inactive | inactive | inactive | inactive | inactive | inactive | inactive | inactive | inactive | inactive | – |
| CC(O)CN(CC(C)O)CC(C)O (centres unmarked) [Triisopropanolamine] | 37 µM | 40% | inactive | inactive | inactive | inactive | inactive | inactive | inactive | inactive | inactive | inactive | inactive | inactive | inactive | inactive | – |
